Measurements reported in patent US10201559B2, “Compositions of selenoorganic compounds and methods of use thereof” (Alltech, Inc., priority 2014, dated 2019).
“Also recorded” adds a separate entry of the source.

Assays:
[1] = system: pGSk3a; test: Western blot, pGSk3a in AML-12 cells; assay type: cell-based, mouse; settings: individual compounds, 6 or 24 hr
Description: (§1) IMR-32 and AML12 cells were seeded on 6-well plates, and then treated with vehicle and various compounds for 6 and 24 hr, as described above. After treatments, cells were rinsed with ice-cold PBS, and lysed in the ice-cold RIPA buffer containing complete proteinase and phosphotase inhibitors (Themo-Fisher Scientific, Waltham, Mass.) on ice for 30 min. Cell lysates were collected using a cell scraper and transfer pipette, and then centrifuged at 12000 g for 30 min at 4° C. to remove the DNA pellet and obtain the protein extract. Protein levels in the supernatant of these cell lysates were determined using the Pierce Micro-BCA protein assay kit (Themo Scientific-Piece Biotechnology, Rockford, Ill.) according to the manufacturer's protocol.
For Western blot analysis, five micrograms of total proteins from vehicle- and compound(s)-treated cells were subjected to SDS-PAGE gel separation, and then transferred to PVDF membranes, as described previously (Reddy, Liu et al. 2008 Science). Membranes were blocked in a phosphate-buffered saline (PBS) containing 5% (w/v) of bovine serum albumin (Sigma, St. Louis, Mo.), and incubated with specific primary antibodies followed by the incubation with HRP-conjugated anti-mouse or anti-rabbit secondary antibodies (1:5000 dilution, Cell Signaling Inc.). All primary antibodies except G6PC (Santa Cruz), Actb (Li-COR, Lincoln, Nebr.), Elf2bε and pElf2bε (Abcam, Cambridge, Mass.) were purchased from Cell Signaling Inc. Positive signals on the membrane blots were detected using the Amersham's enhanced chemiluminescence Western Blotting Prime Detection reagents (GE healthcare Lifescience, Pittsburgh, Pa.). Images of these luminescence signals on the membrane blots were captured using the LI-COR Odyssey Fc Image system (Lincoln, Nebr.). […] Protein band densities in the Western blots were determined using the Li-COR Image studio software or NIH ImageJ software, and then normalized by Actb level in each sample. […]

[2] = system: pTau S396; test: Western blot, pTau S396 in IMR-32 cells; assay type: cell-based, human; settings: 150 ppb, 24 hr
Description: as §1
(§2) For Western blot analysis, five micrograms of total proteins from vehicle- and compound(s)-treated cells were subjected to SDS-PAGE gel separation, and then transferred to PVDF membranes, as described previously (Reddy, Liu et al. 2008 Science). […] All primary antibodies except G6PC (Santa Cruz), Actb (Li-COR, Lincoln, Nebr.), Elf2bε and pElf2bε (Abcam, Cambridge, Mass.) were purchased from Cell Signaling Inc. Positive signals on the membrane blots were detected using the Amersham's enhanced chemiluminescence Western Blotting Prime Detection reagents (GE healthcare Lifescience, Pittsburgh, Pa.). […]

[3] = system: rat brain cortex mitochondria; test: OCR of calcium-stressed rat brain cortex mitochondria (SeaHorse); assay type: biochemical; settings: calcium (10 μM) and 150 ppb compound; control 1,677, calcium alone 1,066
Description: The following example describes an experiment performed in the SeaHorse external flux analyzer; an instrument for measuring the respiration rate of mitochondria expressed as the oxygen consumption rate, or OCR. The experiment in question used mitochondria from the brain cortex of normal rats, maintained on normal laboratory chow which had not been fortified with any additional selenium sources.
An identical sample of the same mitochondrial preparation was treated in exactly the same manner as the control sample except that calcium (10 micromolar final concentration) was added to stress or damage the mitochondria by depolarizing them. As shown (bottom line) the OCR dropped from a value of 1,677 to 1,066 pMoles/min O2.
Again, identical samples of rat brain cortex mitochondria were incubated as above except that they contained calcium (10 μM) and 150 ppb of compounds D and E, respectively. C was not tested. It is evident that the OCR of the compound-treated, calcium-stressed mitochondria were restored to near control levels, i.e. 1,564 pMoles/min O2 in the case of compound D and 1,531 pMoles/min O2 in the case of compound E.

[4] = system: HEK293T cells; test: Fluorescence analysis of mitochondrial potential in HEK293T cells; assay type: cell-based, human; settings: for MT potential (Mitotracker Orange fluorescence): 4.5 hr; for MT potential / mitochondrial activity in kidney cells: dose not stated
Description: HEK293T cells were cultured in 8-chamber glass slides (1×10^4 cells/chamber) for 24 hours, and then treated with various concentrations of compounds or its respective sulfur analogs (dissolved in sterilized water) for 4.5 hr. These compound-treated cells were rinsed twice with PBS, and incubated with Mitotracker Orange Fluorescence Dye (Invitrogen) at 37° C. for 30 min, and then replaced with fresh PBS according to the Manufacturer's protocol. Then fluorescent signals (mitochondrial potential) in these living cells were recorded using a Zeiss Axio Vert.A1 fluorescence microscope (Thornwood, N.Y.). At least three samples in each treatment group were analyzed under the fluorescent microscope.

[5] = system: C2C12 cells; test: Quantitative analysis of mitochondrial potential in C2C12 cells; assay type: cell-based, mouse; settings: for MT potential: 24 hr, compared to control
Description: For C2C12 cells, equal number of cells (1×10^4) were seeded on Corning 96-well clear-bottom and dark-wall cell culture plates (VWR), cultured in 10% FBS DMEM media for 24 hr., and then treated with vehicle (sterilized water), compound C and D and their sulfur analogs for 24 and 48 hrs. These vehicle- or compound-treated cells were rinsed twice with PBS, incubated with Mitotracker Orange fluorescence dye at 37° C. for 30 min, and then replaced with PBS. Mitotracker Orange fluorescence intensities (mitochondrial potential) in these living cells were determined by a Bio-TeK Synergy HT Multi-Mode Fluorescence Microplate Reader (Winooski, Vt.). Eight samples per each treatment were examined for the above analysis, and data are presented as mean±sem of eight samples.

[6] = system: AML-12 cells; test: Quantitative analysis of mitochondrial potential in AML-12 cells; assay type: cell-based, mouse; settings: 150 ppb (of each compound), 6 and 24 hr
Description: For AML-12 liver cells, cells were amplified in 10% FBS Dulbecco's modified Eagle's medium and Ham's F12 medium (1:1) (DMEM/F12) media supplemented with 1× Insulin/Transferin/Selenium (ITS, Sigma). Then equal number of cells (1×10^4 cells/well) were seeded on Corning 96-well clear-bottom and dark-wall cell culture plates (VWR, Radnor, Pa.), cultured in ITS-free 10% FBS DMEM/F12 media for 24 hr., and then subjected to the treatments of various compounds or combination of compounds for 6, 24, and 48 hr. Mitochondrial potential in living cells was determined by quantitative analysis of fluorescence intensities using the Mitotracker orange dye as described above. In addition, the above treated cells were also incubated with Hoechst 33342 dye (Invitrogen, Grand Island, N.Y.) to stain cell nuclei according to the Manufacturer's protocol. The fluorescent intensities of stained cell nuclei by Hoechst 33342 dye were also determined by the fluorescence microplate reader. The mitochondrial potential per cell in living cells was obtained by normalizing the fluorescence intensities of Mitotracker orange dye to the fluorescence intensities of Hoechst 33342 dye in each well. Eight samples per each treatment were examined for the above analysis and data are presented as mean±sem of eight samples.

[7] = system: Tau; test: Western blot, ratio of phosphorylated Tau to total Tau in IMR-32 cells; assay type: cell-based, human; settings: 150 ppb, 24 hr
Description: as §1, §2

SMILES	increased phosphorylation of Gsk3a [1]	phosphorylation of Tau at S396 [2]	OCR (oxygen consumption rate) [3]	MT potential (Mitotracker Orange fluorescence) ([4]; all tested doses (37.5 and 75 ppb))	MT potential / mitochondrial activity in kidney cells [4]	MT potential [5]	potency on MT potential relative to compound C ([5]; lower doses (37.5 and 75 ppb))	stimulation of mitochondrial activity over control levels ([5]; most effective dose)	MT potential [6]	ratio of total pTauS396 and pTauS400/T403/S404 to total Tau proteins [7]	MT potential (Mitotracker Orange fluorescence) ([4]; 37.5 ppb)	MT potential (Mitotracker Orange fluorescence) ([4]; 75 ppb)
Nc1ncnc2c1ncn2[C@@H]1O[C@H](C[Se]CC[C@@H](N)C(=O)O)C(O)C1O (stereo partly drawn) [compound D, 5′-Selenoadenosyl homocysteine]	did not observed the increased phosphorylation	had no effect on Tau phosphorylation at all tested serine/threonine residues	1,564 pMoles/min O2	did not affect MT potential	ineffective	significantly enhanced MT potential	more potent than compound C	two-fold over control levels; also recorded: two-fold stimulation of mitochondrial activity	did not significantly affect MT potential	–	–	–
C[Se]C[C@H]1O[C@@H](n2cnc3c(N)ncnc32)C(O)C1O (stereo in doubt) [compound C, 5′-Methylselenoadenosine]	did not observed the increased phosphorylation	–	–	–	enhanced MT potential	significantly enhanced MT potential	–	–	did not significantly affect MT potential	significantly attenuated total phosphorylation of Tau protein	enhanced MT potential	less effects on MT potential
C[Se]CC(NC(=O)CCC(N)C(=O)O)C(=O)O (stereo not drawn) [compound E, gamma-glutamyl-methylseleno-cysteine]	did not observed the increased phosphorylation	significantly down-regulated	1,531 pMoles/min O2	–	–	–	–	–	did not significantly affect MT potential	trend of reduced Tau phosphorylation	–	–
